According to ChEMBL document CHEMBL1201862, “PubChem BioAssay data set” (2004):
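Results reflect a 48-hour exposure of cells in 96-well plates to compound at five concentrations. The concentration for 50% growth inhibition is given as GI50.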 Active and inactive are the calls of the source. Cut-off read from the data, not from the text of the source: active = GI50 up to about 1.1 µM and inactive = higher.

Tests used:
Test in all cases: DTP human tumour cell line panel, 48 h
NCI-H522 = test system: NCI-H522
SK-MEL-2 = test system: SK-MEL-2
SNB-19 = test system: SNB-19
IGROV-1 = test system: IGROV-1
SK-MEL-28 = test system: SK-MEL-28
T47D = test system: T47D
OVCAR-8 = test system: OVCAR-8
SF-268 = test system: SF-268
MDA-N = test system: MDA-N
ACHN = test system: ACHN
UACC-62 = test system: UACC-62
NCI/ADR-RES = test system: NCI/ADR-RES
U-251 = test system: U-251
MDA-MB-231 = test system: MDA-MB-231
NCI-H23 = test system: NCI-H23
SNB-75 = test system: SNB-75
HL-60 = test system: HL-60
SF-295 = test system: SF-295
PC-3 = test system: PC-3
OVCAR-4 = test system: OVCAR-4

SMILES	GI50 (NCI-H522)	GI50 (SK-MEL-2)	GI50 (SNB-19)	GI50 (IGROV-1)	GI50 (SK-MEL-28)	GI50 (T47D)	GI50 (OVCAR-8)	GI50 (SF-268)	GI50 (MDA-N)	GI50 (ACHN)	GI50 (UACC-62)	GI50 (NCI/ADR-RES)	GI50 (U-251)	GI50 (MDA-MB-231)	GI50 (NCI-H23)	GI50 (SNB-75)	GI50 (HL-60)	GI50 (SF-295)	GI50 (PC-3)	GI50 (OVCAR-4)
COC1=CC(=O)c2c(c(COC(C)=O)cn2C)C1=O	0.0158 µM (active)	0.163 µM (active)	0.345 µM (active)	0.184 µM (active)	0.22 µM (active)	0.736 µM (active)	0.122 µM (active)	0.173 µM (active)	0.0942 µM (active)	0.0306 µM (active)	0.13 µM (active)	0.061 µM (active)	0.129 µM (active)	0.389 µM (active)	0.0715 µM (active)	0.308 µM (active)	0.299 µM (active)	0.0286 µM (active)	0.309 µM (active)	0.257 µM (active)
CN(C)CCNC(=O)c1cccc2[nH]c(-c3ccncc3)nc12	1.88 µM (inactive)	4.28 µM (inactive)	10.7 µM (inactive)	7.5 µM (inactive)	1.86 µM (inactive)	12.7 µM (inactive)	6.68 µM (inactive)	11.4 µM (inactive)	1.74 µM (inactive)	6.53 µM (inactive)	2.96 µM (inactive)	13.2 µM (inactive)	3.1 µM (inactive)	3.24 µM (inactive)	8.39 µM (inactive)	7.33 µM (inactive)	1.01 µM (active)	3.02 µM (inactive)	3.83 µM (inactive)	9.29 µM (inactive)
COc1ccc2oc3c(ccc[n+]3C)c(=O)c2c1	> 100 µM (inactive)	> 100 µM (inactive)	> 100 µM (inactive)	> 100 µM (inactive)	> 100 µM (inactive)	> 100 µM (inactive)	> 100 µM (inactive)	> 100 µM (inactive)	> 100 µM (inactive)	> 100 µM (inactive)	> 100 µM (inactive)	> 100 µM (inactive)	> 100 µM (inactive)	> 100 µM (inactive)	> 100 µM (inactive)	> 100 µM (inactive)	> 100 µM (inactive)	> 100 µM (inactive)	> 100 µM (inactive)	> 100 µM (inactive)
CN(C)CCNc1ccc2nnn3c4ccc(O)cc4c(=O)c1c23	3.12 µM (inactive)	9.79 µM (inactive)	7.89 µM (inactive)	1.96 µM (inactive)	10.9 µM (inactive)	11.1 µM (inactive)	1.73 µM (inactive)	5.38 µM (inactive)	1.86 µM (inactive)	2.76 µM (inactive)	4.74 µM (inactive)	1.81 µM (inactive)	2.1 µM (inactive)	0.273 µM (active)	3.75 µM (inactive)	9.57 µM (inactive)	1.71 µM (inactive)	2.54 µM (inactive)	1.46 µM (inactive)	2.08 µM (inactive)
CC(C)=CCC[C@](C)(O)[C@H]1CC[C@]2(C)[C@@H]1[C@H](O)C[C@@H]1[C@@]3(C)CC[C@H](O[C@@H]4O[C@H](CO)[C@@H](O)[C@H](O)[C@H]4O)C(C)(C)[C@@H]3CC[C@]12C [GINSENOSIDE RH2]	17.2 µM (inactive)	15.9 µM (inactive)	20 µM (inactive)	16.3 µM (inactive)	19.9 µM (inactive)	18.2 µM (inactive)	17.9 µM (inactive)	15.8 µM (inactive)	19.8 µM (inactive)	17.8 µM (inactive)	16.6 µM (inactive)	25.1 µM (inactive)	17.7 µM (inactive)	18.2 µM (inactive)	20.6 µM (inactive)	19.1 µM (inactive)	21 µM (inactive)	23 µM (inactive)	17.6 µM (inactive)	21.5 µM (inactive)
